The values below come from ChEMBL document CHEMBL4190370, “Emerging New Targets for the Treatment of Resistant Fungal Infections” (J Med Chem, 2018).

Converted amounts (≈) assume the structure as drawn.

In series [1] the test system is Candida albicans. Briefly: Antifungal activity against Candida albicans. In kind it is functional.
In series [2] the test system is Candida albicans. Briefly: Inhibition of Cch1 in Candida albicans isolate 10 assessed as potentiation of fluconazole-induced antifungal activity by measuring fractional inhibitory concentration index after 24 hrs by checkerboard assay.
The subject of series [3] is Candida albicans. The series can be described thus: Inhibition of Cch1 in Candida albicans isolate 16 assessed as potentiation of fluconazole-induced antifungal activity by measuring fractional inhibitory concentration index after 24 hrs by checkerboard assay.
Series [4] can be described thus: Inhibition of Aspergillus fumigatus AGM1.
The test system of series [5] is Aspergillus fumigatus. Briefly: Antifungal activity against Aspergillus fumigatus MTU 06002. In kind it is functional.
Series [6] relates to Saccharomyces cerevisiae. The series can be described thus: Synergistic antimicrobial activity against Saccharomyces cerevisiae S288c isolate at MIC concentration after 24 hrs at 30 degC in presence of G884. In kind it is functional.
For series [7], the system named is Candida albicans. Briefly: Synergistic antimicrobial activity against Candida albicans Ca2323 isolate at MIC concentration after 24 hrs at 30 degC in presence of G884. Type of series: functional.
The nature of series [8]: Toxicity in ip dosed DBA/2 mouse infected with Candida albicans MY1055 administered bid for 2 days or qd for 4 days measured on day 4. In kind it is organism-based. The settings on record: in vivo.
Series [9] relates to Candida albicans. Briefly: Synergistic antimicrobial activity against Candida albicans Ca2323 isolate at MIC concentration after 24 hrs at 30 degC in presence of G365. Type of series: functional.
Series [10] relates to Saccharomyces cerevisiae. The series can be described thus: Synergistic antimicrobial activity against Saccharomyces cerevisiae S288c isolate at MIC concentration after 24 hrs at 30 degC in presence of G365. In kind it is functional.
Series [11] deals with Candida tropicalis. The series can be described thus: Antifungal activity against Candida tropicalis KKP 334 by CLSI protocol based method. In kind it is functional.
For series [12], the system named is Aspergillus fumigatus. Briefly: Antifungal activity against Aspergillus fumigatus ATCC 46645 after 24 hrs. Type of series: functional. The settings on record: ATCC 46645, 24 h.
In series [13] the test system is Candida albicans. Briefly: Antifungal activity against Candida albicans ATCC 44859 after 48 hrs by broth-microdilution method. In kind it is functional. The settings on record: ATCC 44859, 48 h. (In general: Dilution methods test growth across graded concentrations, often in twofold steps.)
In series [14] the target is T1, Glycylpeptide N-tetradecanoyltransferase (Candida albicans (strain SC5314 / ATCC MYA-2876) (Yeast), UniProt P30418).
T1 sequence (P30418 whole entry): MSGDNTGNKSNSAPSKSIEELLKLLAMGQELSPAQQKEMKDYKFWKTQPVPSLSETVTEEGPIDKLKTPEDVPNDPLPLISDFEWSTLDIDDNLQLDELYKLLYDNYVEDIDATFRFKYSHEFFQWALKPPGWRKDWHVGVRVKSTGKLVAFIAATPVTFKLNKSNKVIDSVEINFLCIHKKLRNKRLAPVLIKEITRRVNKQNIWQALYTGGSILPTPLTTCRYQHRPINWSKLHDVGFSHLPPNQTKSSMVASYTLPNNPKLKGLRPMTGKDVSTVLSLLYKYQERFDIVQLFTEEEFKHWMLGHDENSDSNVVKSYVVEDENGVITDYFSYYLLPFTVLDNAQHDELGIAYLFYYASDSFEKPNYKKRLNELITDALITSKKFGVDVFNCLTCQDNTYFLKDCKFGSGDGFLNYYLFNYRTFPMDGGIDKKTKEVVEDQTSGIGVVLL
The series can be described thus: Inhibition of Candida albicans ATCC 90028 NMT using GLTISKLFRR-NH2 as substrate assessed as reduction in [3H]-myristoylated peptide reaction product formation preincubated with substrate for 10 mins followed by enzyme addition measured after 10 mins by HPLC analysis.

In series [15] the test system is Candida albicans. The series can be described thus: Antifungal activity against Candida albicans ATCC 90028 after 48 hrs by broth-microdilution method. In kind it is functional. The settings on record: ATCC 90028, 48 h.
Series [16] has as its system Candida albicans. The series can be described thus: Antifungal activity against Candida albicans ATCC 24433 after 48 hrs by broth-microdilution method. Type of series: functional. The settings on record: ATCC 24433, 48 h.
Series [17] has as its system Candida albicans. The series can be described thus: Antifungal activity against Candida albicans TIMM 0239 after 48 hrs by broth-microdilution method. In kind it is functional. The settings on record: TIMM 0239, 48 h.
Series [18] deals with Aspergillus fumigatus. Briefly: Antifungal activity against Aspergillus fumigatus IFM 40808 after 48 hrs by broth-microdilution method. Type of series: functional. The settings on record: IFM 40808, 48 h.
Series [19] concerns Candida albicans. The series can be described thus: Antifungal activity against Candida albicans IFM 40009 after 48 hrs by broth-microdilution method. Type of series: functional. The settings on record: IFM 40009, 48 h.
Series [20] has as its system Cryptococcus neoformans. The series can be described thus: Antifungal activity against Cryptococcus neoformans TIMM 3173 after 48 hrs by broth-microdilution method. Type of series: functional. The settings on record: TIMM 3173, 48 h.
Series [21] has as its system Candida albicans. The series can be described thus: Antifungal activity against Candida albicans TIMM 0171 after 48 hrs by broth-microdilution method. Type of series: functional. The settings on record: TIMM 0171, 48 h.
The subject of series [22] is Candida albicans. Briefly: Antifungal activity against Candida albicans IFM 5728 after 48 hrs by broth-microdilution method. In kind it is functional. The settings on record: IFM 5728, 48 h.
For series [23], the system named is Cryptococcus neoformans. Briefly: Antifungal activity against Cryptococcus neoformans H99 after 48 hrs. In kind it is functional. The settings on record: var grubii H99 .

By MIC is commonly meant the smallest concentration in the dilution series that meets the test's criterion for growth inhibition. High values mean a need for much substance, low ones inhibition by little substance. In series [1], `N=C(N)NCCC[C@H](N)C(=O)N[C@@H](/C=C/CP(=O)(O)O)C(=O)O` had an MIC of 0.35 µg/mL (≈ 0.996 µM).

For the molecule `Fc1ccc(C(c2ccc(F)cc2)N2CCN(C/C=C/c3ccccc3)CC2)cc1`, the fractional inhibitory concentration index (FICI) in [2] and in series [3] was 0.017 to 0.035 throughout.

In general, IC50 refers to the midpoint of a concentration-inhibition curve. Consider `NC(Cc1cc(O)c(O)cc1O)C(=O)O` (stereo unspecified), for which the IC50 in series [4] was 58 µM.

In series [4], `Cc1nc(/N=N/c2ccc(C(=O)O)cc2)c(COP(=O)(O)O)c(C=O)c1O` gave an IC50 of 7.1 µM.

On to `COC(=O)C1=C(C)NC(C)=C(C(=O)OC2CCCN(Cc3ccccc3)C2)C1c1cccc([N+](=O)[O-])c1` (stereo unspecified), for which the fractional inhibitory concentration index (FICI) in [2] and in series [3] was 0.017 to 0.035 throughout.

One may read the IC80 as the concentration at which the effect reaches the 80% level. As for `C/N=[N+](\[O-])CC[C@H](N)C(=O)O`, in series [5], the IC80 amounted to 0.72 µg/mL (≈ 4.47 µM).

One may read the LD50 as the dose at which mortality reaches 50%. Low values mean a more toxic substance, high ones a less toxic substance. For the molecule `C=C1C2CC3[C@@H](C(C)C)[C@H](OC(=O)NCCCC)C[C@]3(C)CC2/C(C)=C\CC2[C@H](C)OC(=O)[C@@H](O)[C@@]12O` (stereo partly specified), the “fractional inhibitory concentration index (FICI)” value in series [6], in [7], in [9] and in [10] was 0.25 - 0.313 throughout. The molecule also had an LD50 at 4 days in series [8] above 300 mg/kg.

In series [11], `COC(=O)c1ccc(C[C@@H](C(=O)OC)[C@@H](O)C(=O)OC)cc1` gave an MIC of 1000 µg/mL (≈ 3220 µM).

Regarding `CC1=C(O)C(=O)C=C2C1=CC=C1[C@@]2(C)CC[C@@]2(C)[C@@H]3C[C@](C)(C(=O)O)CC[C@]3(C)CC[C@]12C` [CELASTROL], in series [12], the MIC turned out to be 2 µM (≈ 0.901 µg/mL).

Consider `O=C(Nc1nc2ccc(NC(=O)[C@@H]3CCC[C@H](NCc4ccc5ccccc5c4)C3)cc2s1)C1CCCC1`, for which the MIC is 0.78 µM (≈ 0.411 µg/mL) in series [13]; 0.78 µM (≈ 0.411 µg/mL) in series [15]; 0.78 µM (≈ 0.411 µg/mL) in series [16]; 0.78 µM (≈ 0.411 µg/mL) in [17]; above 25 µM in [18]; 0.78 µM (≈ 0.411 µg/mL) in [19]. In addition, the MIC is above 25 µM in series [20], 0.78 µM (≈ 0.411 µg/mL) in series [21] and 0.78 µM (≈ 0.411 µg/mL) in series [22]. Further, the IC50 in [14] was found to be 0.00049 µM.

The MIC80 is the lowest concentration that inhibits either 80% of growth or 80% of the strains tested, depending on the study. Lower therefore signals greater potency. For the molecule `Cc1nn(-c2ccccc2)c2nc(C(F)(F)F)cc(O)c12`, the MIC80 in series [23] lay in the range of 32 to 64 µg/mL (≈ 109 to 218 µM).
